Test [1] has as its system Coniophora puteana. Nature of the test: growth of the fungi Coniophora puteana at varying concentrations. The format is cell-based. The following applies: FIG. 1. From the text:
(§1) Coniophora puteana and […] stillatus, the former is a standard organism in such tests prescribed for use in the European Standard Test EN 113.

A further test relates to Dacrymyces stillatus. Nature of the test: growth of the fungi Dacrymyces stillatus at varying concentrations. The format is cell-based. The settings on record: FIG. 2.
Source text: as §1

For test [2], the system named is Coniophora puteana. The experiment in a line: wood block test, % reduction of dry matter after exposure to fungi (EN 113). The following applies: 3 months. How it is done:
Coniophora puteana and […] stillatus, the former is a standard organism in such tests prescribed for use in the European Standard Test EN 113. The tests were carried out in the following way: Small blocks of wood of the prescribed size 5 cm×2.5 cm×1.5 cm were numbered and then dried in an oven at 105° C. for 24 hours, cooled and weighed. That represented the dry weight at start. […] The blocks were impregnated with said solution and control blocks with sterile distilled water under vacuum for 10 minutes and then left in the impregnating solution for 1 hour, whereupon they were completely soaked with the impregnating solution. Subsequent to this impregnation the blocks were placed on filter paper for 30 minutes for drainage. The test blocks were then washed three times with distilled water for 2 minutes and then left in distilled water for 24 hours and finally washed three times with distilled water and then placed on filter paper for drainage. Four blocks were used for each concentration of impregnating solution with 2 blocks in each test flask, so-called Kolle flasks. The duration of the tests was 3 months. The blocks were then removed from the flasks and scraped clean of fungi, whereupon they were dried at 105° C. for 24 hours and weighed and percent reduction in dry weight was calculated.

Regarding `O=CO.O=C[O-].[K+]` [K-diformate, potassium diformate], the “concentration at which it acts as an effective fungicide (growth)” value in the test on Coniophora puteana [1] is “at least 0.13 weight %”. Besides, the “concentration necessary to achieve complete retardation in growth” value in the test with Dacrymyces stillatus is given as “at least 0.18 weight %”. The “concentration necessary to obtain required effect on reduction of dry matter” value with Coniophora puteana [2] (with subsequent washing of test blocks, FIG. 4) turned out to be 4.8%. In the test with Coniophora puteana [2] (without subsequent washing of test blocks, FIGS. 3 and 7), the “concentration giving complete effect on reduction of dry matter” value is recorded as 1.3–2%.

These data come from US7156906B2, “Impregnating agent” (Yara International ASA, priority 2001, dated 2007).
